Assay results published in PMC4348537, “Discovery of Novel New Delhi Metallo-β-Lactamases-1 Inhibitors by Multistep Virtual Screening” (PLoS ONE, 2015).

Tests used:
[1] = target: T1, NDM-1 (New Delhi metallo-β-lactamase-1) (Klebsiella pneumoniae, UniProt C7C422); experiment: nitrocefin hydrolysis assay with purified enzyme, dose-response; similar with […] Triton X-100; type: biochemical
T1 construct: gene blaNDM-1

[2] = target: T1, NDM-1 (New Delhi metallo-β-lactamase-1); experiment: steady-state hydrolysis kinetics at […] nm, Km by Lineweaver-Burk plot; type: biochemical

T1 sequence (C7C422 29-270 limits assumed): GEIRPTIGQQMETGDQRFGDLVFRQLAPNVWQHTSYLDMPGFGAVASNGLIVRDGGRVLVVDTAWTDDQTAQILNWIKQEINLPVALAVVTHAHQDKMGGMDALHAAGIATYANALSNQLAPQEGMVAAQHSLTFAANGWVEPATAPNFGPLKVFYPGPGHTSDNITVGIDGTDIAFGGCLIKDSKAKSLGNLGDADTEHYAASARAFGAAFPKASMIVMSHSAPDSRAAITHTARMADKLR

For `Cc1cc(C)c(NC(=O)CSc2ncc3c(n2)-c2ccc(Cl)cc2N(C)S3(=O)=O)c(C)c1` [VNI-24], the IC50 [1] was 37.6 ± 0.9 µM.

With `CCOc1ccc(S(=O)(=O)N2CCN(c3cc(Nc4ccc(C)cc4)nc(C)n3)CC2)cc1` [VNI-34] the IC50 [1] was 31.4 ± 1.2 µM.

Compound `O=C(Nc1cccc2ccccc12)C1CCN(S(=O)(=O)c2cccc3nonc23)CC1` [VNI-41] has an IC50 [1] of 29.6 ± 1.3 µM.

`O=C(Cc1cccs1)N[C@@H]1C(=O)N2C(C(=O)O)=C(/C=C/c3ccc([N+](=O)[O-])cc3[N+](=O)[O-])CS[C@H]12` [nitrocefin] showed a Km [2] of 9.54 ± 0.43 µM.
